Laboratory results from the supplement of paper PMC10307832.

How the values were obtained:
Experiment in all cases: relative viability (nuclei count vs DMSO), 5 days (fraction); higher = more cells survive
NCI-H2009 = test system: NCI-H2009
Summary of the method: (§1)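 Relative viability is defined as nuclei in treated wells over nuclei in vehicle wells. Duplicate plates were run and medians reported. Lung cancer cell lines in 1536-well plates were dosed by pin tool one day after seeding, with one drug or with a fixed anchor-drug dose plus five library-drug doses (not always all listed) in √10 steps, and nuclei were counted after 5 days.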

HCC-44 = test system: HCC-44
Summary of the method: as §1

NCI-H1944 = test system: NCI-H1944
Summary of the method: as §1

NCI-H2023 = test system: NCI-H2023
Summary of the method: as §1

HCC-827 = test system: HCC-827
Summary of the method: as §1

NCI-H2228 = test system: NCI-H2228
Summary of the method: as §1

HCC-366 = test system: HCC-366
Summary of the method: as §1

COR-L23 = test system: COR-L23
Summary of the method: as §1

SW 1573 = test system: SW 1573
Summary of the method: as §1

ABC-1 = test system: ABC-1
Summary of the method: as §1

NCI-H2085 = test system: NCI-H2085
Summary of the method: as §1

LCLC-103H = test system: LCLC-103H
Summary of the method: as §1

NCI-H3122 = test system: NCI-H3122
Summary of the method: as §1

PC-14 = test system: PC-14
Summary of the method: as §1

NCI-H2347 = test system: NCI-H2347
Summary of the method: as §1

NCI-H1355 = test system: NCI-H1355
Summary of the method: as §1

NCI-H1793 = test system: NCI-H1793
Summary of the method: as §1

NCI-H2405 = test system: NCI-H2405
Summary of the method: as §1

HCC-15 = test system: HCC-15
Summary of the method: as §1

EPLC-272H = test system: EPLC-272H
Summary of the method: as §1

NCI-H1734 = test system: NCI-H1734
Summary of the method: as §1

`Cc1csc(=NC2CCCCC2)n1/N=C/c1ccc(O)c(O)c1O` [MIM1] + Cc1nc(NC(=O)N2CCC[C@H]2C(N)=O)sc1-c1ccnc(C(C)(C)C(F)(F)F)c1 [Alpelisib] (partner 2 µM) was tested, and the relative viability (NCI-H2009; first compound 0.2 µM) was 1.14, the relative viability (NCI-H2009; first compound 0.6325 µM) was 1.21 and the relative viability (NCI-H2009; first compound 2 µM) was 1.23. The relative viability (NCI-H2009; first compound 6.325 µM) was 1.04, the relative viability (NCI-H2009; first compound 20 µM) was 0.987 and the relative viability (HCC-44; first compound 0.2 µM) was 0.835. It also gave a relative viability (HCC-44; first compound 0.6325 µM) of 0.838, a relative viability (HCC-44; first compound 2 µM) of 0.577 and a relative viability (HCC-44; first compound 6.325 µM) of 0.498. The relative viability (HCC-44; first compound 20 µM) was 0.137, the relative viability (NCI-H1944; first compound 0.2 µM) was 0.831 and the relative viability (NCI-H1944; first compound 0.6325 µM) was 0.849. For the same compound, the relative viability (NCI-H1944; first compound 2 µM) was 0.671, the relative viability (NCI-H1944; first compound 6.325 µM) was 0.733 and the relative viability (NCI-H1944; first compound 20 µM) was 0.882. For the same compound, the relative viability (NCI-H2023; first compound 0.2 µM) was 0.564, the relative viability (NCI-H2023; first compound 0.6325 µM) was 0.594 and the relative viability (NCI-H2023; first compound 2 µM) was 0.526. For the same compound, the relative viability (NCI-H2023; first compound 6.325 µM) was 0.368, the relative viability (NCI-H2023; first compound 20 µM) was 0.328 and the relative viability (HCC-827; first compound 0.2 µM) was 0.953. For the same compound, the relative viability (HCC-827; first compound 0.6325 µM) was 0.986, the relative viability (HCC-827; first compound 2 µM) was 0.913 and the relative viability (HCC-827; first compound 6.325 µM) was 0.441. For the same compound, the relative viability (HCC-827; first compound 20 µM) was 0.34, the relative viability (NCI-H2228; first compound 0.2 µM) was 0.76 and the relative viability (NCI-H2228; first compound 0.6325 µM) was 1.09. The relative viability (NCI-H2228; first compound 2 µM) was 0.666, the relative viability (NCI-H2228; first compound 6.325 µM) was 0.335 and the relative viability (NCI-H2228; first compound 20 µM) was 0.197. The relative viability (HCC-366; first compound 0.2 µM) was 0.37, the relative viability (HCC-366; first compound 0.6325 µM) was 0.37 and the relative viability (HCC-366; first compound 2 µM) was 0.335. It also gave a relative viability (HCC-366; first compound 6.325 µM) of 0.308, a relative viability (HCC-366; first compound 20 µM) of 0.0363 and a relative viability (COR-L23; first compound 0.2 µM) of 0.725. The relative viability (COR-L23; first compound 0.6325 µM) was 0.809, the relative viability (COR-L23; first compound 2 µM) was 0.537 and the relative viability (COR-L23; first compound 6.325 µM) was 0.558. It also gave a relative viability (COR-L23; first compound 20 µM) of 0.457, a relative viability (SW 1573; first compound 0.2 µM) of 0.809 and a relative viability (SW 1573; first compound 0.6325 µM) of 0.758. The relative viability (SW 1573; first compound 2 µM) was 0.808, the relative viability (SW 1573; first compound 6.325 µM) was 0.639 and the relative viability (SW 1573; first compound 20 µM) was 0.618. It also gave a relative viability (ABC-1; first compound 0.2 µM) of 1.02, a relative viability (ABC-1; first compound 0.6325 µM) of 1.05 and a relative viability (ABC-1; first compound 2 µM) of 0.913. It also gave a relative viability (ABC-1; first compound 6.325 µM) of 0.816, a relative viability (ABC-1; first compound 20 µM) of 0.322 and a relative viability (NCI-H2085; first compound 0.2 µM) of 0.946. The relative viability (NCI-H2085; first compound 0.6325 µM) was 1.02, the relative viability (NCI-H2085; first compound 2 µM) was 0.984 and the relative viability (NCI-H2085; first compound 6.325 µM) was 0.84. For the same compound, the relative viability (NCI-H2085; first compound 20 µM) was 0.882, the relative viability (LCLC-103H; first compound 0.2 µM) was 0.9 and the relative viability (LCLC-103H; first compound 0.6325 µM) was 1.08. The relative viability (LCLC-103H; first compound 2 µM) was 1.08, the relative viability (LCLC-103H; first compound 6.325 µM) was 0.913 and the relative viability (LCLC-103H; first compound 20 µM) was 0.928. It also gave a relative viability (NCI-H3122; first compound 0.2 µM) of 0.825, a relative viability (NCI-H3122; first compound 0.6325 µM) of 0.833 and a relative viability (NCI-H3122; first compound 2 µM) of 0.881. The relative viability (NCI-H3122; first compound 6.325 µM) was 0.644, the relative viability (NCI-H3122; first compound 20 µM) was 0.249 and the relative viability (PC-14; first compound 0.2 µM) was 0.886. It also gave a relative viability (PC-14; first compound 0.6325 µM) of 0.92, a relative viability (PC-14; first compound 2 µM) of 0.847 and a relative viability (PC-14; first compound 6.325 µM) of 0.878. The relative viability (PC-14; first compound 20 µM) was 0.383, the relative viability (NCI-H2347; first compound 0.2 µM) was 1.03 and the relative viability (NCI-H2347; first compound 0.6325 µM) was 1.02. It also gave a relative viability (NCI-H2347; first compound 2 µM) of 1.13, a relative viability (NCI-H2347; first compound 6.325 µM) of 0.728 and a relative viability (NCI-H2347; first compound 20 µM) of 0.534. The relative viability (NCI-H1355; first compound 0.2 µM) was 0.89, the relative viability (NCI-H1355; first compound 0.6325 µM) was 0.805 and the relative viability (NCI-H1355; first compound 2 µM) was 0.924. The relative viability (NCI-H1355; first compound 6.325 µM) was 0.672, the relative viability (NCI-H1355; first compound 20 µM) was 0.359 and the relative viability (NCI-H1793; first compound 0.2 µM) was 0.509. For the same compound, the relative viability (NCI-H1793; first compound 0.6325 µM) was 0.584, the relative viability (NCI-H1793; first compound 2 µM) was 0.717 and the relative viability (NCI-H1793; first compound 6.325 µM) was 0.579. For the same compound, the relative viability (NCI-H1793; first compound 20 µM) was 0.804, the relative viability (NCI-H2405; first compound 0.2 µM) was 0.787 and the relative viability (NCI-H2405; first compound 0.6325 µM) was 0.85. It also gave a relative viability (NCI-H2405; first compound 2 µM) of 0.739, a relative viability (NCI-H2405; first compound 6.325 µM) of 0.76 and a relative viability (NCI-H2405; first compound 20 µM) of 0.644. The relative viability (HCC-15; first compound 0.2 µM) was 0.989, the relative viability (HCC-15; first compound 0.6325 µM) was 0.838 and the relative viability (HCC-15; first compound 2 µM) was 0.967. The relative viability (HCC-15; first compound 6.325 µM) was 0.481, the relative viability (HCC-15; first compound 20 µM) was 0.125 and the relative viability (EPLC-272H; first compound 0.2 µM) was 0.968. It also gave a relative viability (EPLC-272H; first compound 0.6325 µM) of 0.769, a relative viability (EPLC-272H; first compound 2 µM) of 0.973 and a relative viability (EPLC-272H; first compound 6.325 µM) of 0.958. For the same compound, the relative viability (EPLC-272H; first compound 20 µM) was 0.294, the relative viability (NCI-H1734; first compound 0.2 µM) was 0.738 and the relative viability (NCI-H1734; first compound 0.6325 µM) was 0.655. It also gave a relative viability (NCI-H1734; first compound 2 µM) of 0.696, a relative viability (NCI-H1734; first compound 6.325 µM) of 0.655 and a relative viability (NCI-H1734; first compound 20 µM) of 0.38.
